Measurements published in patent publication US20240299376A1, “METHOD OF TREATING A CONDITION USING A […] EFFECTIVE DOSE OF 1-(1-OXO-1,2-DIHYDROISOQUINOLIN-5-YL)-5-(TRIFLUOROMETHYL)-N-(2-(TRIFLUOROMETHYL)PYRIDIN-4-YL)-1H-PYRAZOLE-4-CARBOXAMIDE” (Janssen Pharmaceutica NV, priority 2021, published 2024).
Where two headings read alike, the source gives them in different places.

How the values were obtained:
[1] = test system: OCI-LY3 human DLBCL xenografts; experiment: Antitumor efficacy in established OCI-LY3 human DLBCL xenografts; format: in vivo, NSG mice
Description: The human ABC-DLBCL cell line OCI-LY3 was obtained from Dr. Miguel A Piris, Hospital Universitario Marques de Valdecilla, Santander, Spain. The human ABC-DLBCL cell line OCI-LY-10 was obtained from University Hospital Network, Ontario Cancer Institute. OCY-LY3 cells were maintained at 37° C. in a humidified atmosphere (5% CO2, 95% air), in RPMI-1640 medium with GlutaMAX™, supplemented with 10% Fetal Bovine Serum (Heat Inactivated at 57° C., and 1% Penicillin-Streptomycin). Each mouse received 1×10^6 cells in serum-free RPMI-1640 medium or PBS with Matrigel basement matrix […] in a total volume of 0.2 mL. Cells were implanted SC in the right flank using a 1 ml syringe and a 26-gauge needle. The day of tumor implantation was designated as Day 0.
Tumor volume was calculated using the formula: tumor volume (mm^3)=(Dxd^2/2); where ‘D’ represents the larger diameter, and ‘d’ the smaller diameter of the tumor as determined by caliper measurements. Tumor volume data was graphically represented as the mean tumor volume±SEM.
Percent tumor growth inhibition (TGI) was defined as the difference between mean tumor volumes of the treated and control group, calculated as
where TVc is the mean tumor volume of a given control group and TVt is the mean tumor volume of the treatment group. As defined by National Cancer Institute criteria, ≥60% TGI is considered biologically significant.
Group tumor volumes are graphed as the mean+/−SEM. Mice were implanted SC on the right flank on Day 0.
For study 3, animals were randomly assigned into treatment groups, when the OCI-LY3 mean tumor volume was 164 mm^3 (Day 32 post-tumor cell implantation). Treatment was initiated on the day of randomization (Day 32). After 28 days of treatment on Day 60, serum was collected at 2, 4, and 12 hours post last dose for the bid treated groups or 2, 4 and 24 hours post last dose for qd treated groups in cohorts of 5 mice. Blood was collected from the retro-orbital sinus and submitted for bioanalytical analysis.

[2] = test system: IL-10 secretion by OCI-LY3 ABC-DLBCL cells; experiment: IL-10 secretion assay (MesoScale Discovery); format: cell-based; settings: Homo sapiens; supernatants of OCI-LY3 cells, 16 independent experiments
Description: NF-κB signaling regulates the secretion of multiple cytokines, including interleukin (IL)-6 and IL-10. Libermann T A et al. Mol Cell Biol. 1990; 10(6):3155-3162; and Cao S, et al. J Biol Chem. 2006; 281(36):26041-26050. Secretion of the cytokines IL-6 and IL-10 by OCI-LY3 ABC-DLBCL cells was measured using a MesoScale Discovery (MSD) assay.

[3] = test system: Rec1 (Ibrutinib sensitive MCL); experiment: Anti-proliferative activity, DLBCL cell line panel; format: cell-based; settings: Homo sapiens, Rec1, 192 h; antiproliferation after 8 days of treatment
[4] = test system: HLY-1 (Myd88/CARD11/homoz A20 mut); experiment: Anti-proliferative activity, DLBCL cell line panel; format: cell-based; settings: 192 h; antiproliferation after 8 days of treatment
[5] = test system: OCI-LY3 cells; experiment: Whole-gene transcriptomics; format: cell-based, human; settings: OCI-LY3 (Myd88 and CARD11 mutations)
[6] = Oral bioavailability, 5 mg/kg solution in PEG400; format: in vivo, mice, rats, dogs, and monkeys; settings: plasma, oral 5 mg/kg
Text: (Data for mice, rats, and monkeys are not shown.)

[7] = 14-day oral toxicity study toxicokinetics in Sprague-Dawley rats; format: in vivo; settings: rat, plasma; for Cmax / AUC(0-t): mean; for AUC(0-t): read-out: AUC0-24 h; for Tmax: range
Description: Repeated-dose PK (toxicokinetics) were obtained as part of the repeated oral dose toleration toxicity studies in rats and dogs.
There was no further increase in the daily exposure parameters at 1,000 mg/kg relative to those from 200 mg/kg/day. There was no effect of gender on exposure and there was no increase in daily exposure parameters on Day 14 relative to those observed after the first dose.

[8] = test system: phosphorylation of IκBα in OCI-LY3 cells; settings: unstimulated conditions
Description: The phospho-IκBα (pIκBα) signal was quantified as percent of DMSO control and normalized against β-tubulin.

[9] = female, 30 mg/kg/day, female, Day 0, 30 mg/kg/day
[10] = female, 30 mg/kg/day, female, Day 13, 30 mg/kg/day
[11] = female, 200 mg/kg/day, female, Day 0, 200 mg/kg/day
[12] = female, 200 mg/kg/day, female, Day 13, 200 mg/kg/day
[13] = female, 1000 mg/kg/day, female, Day 0, 1,000 mg/kg/day
[14] = female, 1000 mg/kg/day, female, Day 13, 1,000 mg/kg/day
[15] = male, 30 mg/kg/day, male, Day 0, 30 mg/kg/day
[16] = male, 30 mg/kg/day, male, Day 13, 30 mg/kg/day
[17] = male, 200 mg/kg/day, male, Day 0, 200 mg/kg/day
[18] = male, 200 mg/kg/day, male, Day 13, 200 mg/kg/day
[19] = male, 1000 mg/kg/day, male (4M), Day 13, 1,000 mg/kg/day
[20] = male, 1000 mg/kg/day, male, Day 0, 1,000 mg/kg/day

**Q.** Which TGI ([1]; 1 mg/kg BID PO, 4 weeks, vs vehicle control) does the source give for `O=C(Nc1ccnc(C(F)(F)F)c1)c1cnn(-c2cccc3c(=O)[nH]ccc23)c1C(F)(F)F` [Compound A, 1-(1-oxo-1,2-dihydroisoquinolin-5-yl)-5-(trifluoromethyl)-N-[2-(trifluoromethyl)pyridin-4-yl]-1H-pyrazole-4-carboxamide] here?
**A.** The TGI was 37%.

**Q.** And the “TGI (%) at day 28” value ([1]; 1 mg/kg, bid (Table 4))?
**A.** The value was 46%.

**Q.** And the TGI ([1]; 3 mg/kg BID PO, 4 weeks, vs vehicle control)?
**A.** The TGI was 19%.

**Q.** And the “TGI (%) at day 28” value ([1]; 3 mg/kg, bid (Table 4))?
**A.** The value was 23%.

**Q.** And the TGI ([1]; 10 mg/kg BID PO, 4 weeks, vs vehicle control)?
**A.** The TGI was 53%.

**Q.** And the “mean TGI” value ([1]; 10 mg/kg BID, 3 independent OCI-LY3 antitumor efficacy studies)?
**A.** The value was 60%.

**Q.** And the TGI ([1]; 10 mg/kg BID, previous efficacy studies in the OCI-LY3 model)?
**A.** The TGI was 51-76%.

**Q.** And the TGI ([1]; 10 mg/kg, 8/16 hr split schedule instead of 12/12 hr)?
**A.** The TGI was 57%.

**Q.** And the “TGI (%) at day 28” value ([1]; 10 mg/kg, bid (Table 4))?
**A.** Its value is 66%.

**Q.** And the TGI ([1]; 30 mg/kg BID PO, 4 weeks, vs vehicle control)?
**A.** Its TGI is 72%.

**Q.** And the TGI ([1]; 30 mg/kg BID, previous efficacy studies in the OCI-LY3 model)?
**A.** The TGI was 60-86%.

**Q.** What about the “TGI (%) at day 28” value ([1]; 30 mg/kg, bid (Table 4)) of the same molecule?
**A.** The value was 90%.

**Q.** What about the TGI ([1]; 60 mg/kg QD PO, 4 weeks, vs vehicle control) of the same molecule?
**A.** Its TGI is 57%.

**Q.** What about the “TGI (%) at day 28” value ([1]; 60 mg/kg, qd (Table 4)) of the same molecule?
**A.** Its value is 71%.

**Q.** What about the TGI ([1]; 100 mg/kg BID PO, 4 weeks, vs vehicle control) of the same molecule?
**A.** Its TGI is 72%.

**Q.** And the “TGI (%) at day 28” value ([1]; 100 mg/kg, bid (Table 4))?
**A.** Its value is 90%.

**Q.** And the TGI ([1]; 100 mg/kg, previous efficacy studies in the OCI-LY3 model)?
**A.** The TGI was 62-89%.

**Q.** What about the tolerability ([1]; 1 to 100 mg/kg (BID or QD), OCI-LY3 and OCI-LY10 xenograft models in NSG mice) of the same molecule?
**A.** The tolerability was “well tolerated”.

**Q.** And the minimum efficacious dose ([1]; BID, OCI-LY3 model)?
**A.** The minimum efficacious dose was 10 mg/kg.

**Q.** What about the IC50 [2] of the same molecule?
**A.** The IC50 was 77 ± 24 nM.

**Q.** What about the IC50 [3] of the same molecule?
**A.** Its IC50 is 1170 nM.

**Q.** And the IC50 [4]?
**A.** Its IC50 is 8800 nM.

**Q.** What about the gene expression changes [5] of the same molecule?
**A.** The gene expression changes was “clear dose-dependent gene expression changes”.

**Q.** And the bioavailability ([6]; Sprague-Dawley, rat, rats)?
**A.** Its bioavailability is 51.2%.

**Q.** And the bioavailability ([6]; beagle, dog, dogs)?
**A.** Its bioavailability is 100%.

**Q.** What about the bioavailability ([6]; mouse, rat, dog, monkey, all species (mice, rats, dogs, monkeys)) of the same molecule?
**A.** The bioavailability was greater than 50%.

**Q.** What about the Cmax [7, 9] of the same molecule?
**A.** Its Cmax is 27.1 µg/mL.

**Q.** And the AUC(0-t) [7, 9]?
**A.** The AUC(0-t) was 366 µg·h/mL.

**Q.** And the Tmax [7, 9]?
**A.** Its Tmax is 1 to 7 h.

**Q.** What about the Cmax [7, 10] of the same molecule?
**A.** The Cmax was 33.4 µg/mL.

**Q.** What about the AUC(0-t) [7, 10] of the same molecule?
**A.** Its AUC(0-t) is 451 µg·h/mL.

**Q.** What about the Tmax [7, 10] of the same molecule?
**A.** Its Tmax is 2 to 4 h.

**Q.** What about the Cmax [7, 11] of the same molecule?
**A.** Its Cmax is 93.1 µg/mL.

**Q.** And the AUC(0-t) [7, 11]?
**A.** Its AUC(0-t) is 93.1 µg·h/mL.

**Q.** What about the Cmax [7, 12] of the same molecule?
**A.** The Cmax was 96.1 µg/mL.

**Q.** And the AUC(0-t) [7, 12]?
**A.** The AUC(0-t) was 1300 µg·h/mL.

**Q.** What about the Tmax [7, 12] of the same molecule?
**A.** Its Tmax is 2 to 7 h.

**Q.** What about the Cmax [7, 13] of the same molecule?
**A.** The Cmax was 83.2 µg/mL.

**Q.** And the AUC(0-t) [7, 13]?
**A.** The AUC(0-t) was 1140 µg·h/mL.

**Q.** And the Tmax [7, 13]?
**A.** The Tmax was 2 to 4 h.

**Q.** What about the Cmax [7, 14] of the same molecule?
**A.** The Cmax was 83.2 µg/mL.

**Q.** What about the AUC(0-t) [7, 14] of the same molecule?
**A.** Its AUC(0-t) is 83.2 µg·h/mL.

**Q.** And the Cmax ([7]; male, 30 mg/kg/day, male, Day 0 (first day of dosing), 30 mg/kg/day)?
**A.** The Cmax was 24.4 µg/mL.

**Q.** And the AUC(0-t) [7, 15]?
**A.** Its AUC(0-t) is 247 µg·h/mL.

**Q.** What about the Tmax [7, 15] of the same molecule?
**A.** Its Tmax is 2 to 4 h.

**Q.** What about the Cmax [7, 16] of the same molecule?
**A.** Its Cmax is 26.7 µg/mL.

**Q.** And the AUC(0-t) [7, 16]?
**A.** The AUC(0-t) was 305 µg·h/mL.

**Q.** What about the Tmax [7, 16] of the same molecule?
**A.** The Tmax was 2 h.

**Q.** And the Cmax [7, 17]?
**A.** Its Cmax is 96.7 µg/mL.

**Q.** What about the AUC(0-t) [7, 17] of the same molecule?
**A.** Its AUC(0-t) is 1410 µg·h/mL.

**Q.** And the Tmax [7, 17]?
**A.** The Tmax was 7 to 9 h.

**Q.** And the Cmax [7, 18]?
**A.** The Cmax was 63.9 µg/mL.

**Q.** What about the AUC(0-t) [7, 18] of the same molecule?
**A.** Its AUC(0-t) is 803 µg·h/mL.

**Q.** And the Tmax [7, 18]?
**A.** Its Tmax is 2 to 7 h.

**Q.** And the Cmax [7, 19]?
**A.** Its Cmax is 83.2 µg/mL.

**Q.** What about the AUC(0-t) [7, 19] of the same molecule?
**A.** The AUC(0-t) was 898 µg·h/mL.

**Q.** What about the Tmax [7, 19] of the same molecule?
**A.** Its Tmax is 2 to 4 h.

**Q.** And the Cmax [7, 20]?
**A.** The Cmax was 90.8 µg/mL.

**Q.** And the AUC(0-t) [7, 20]?
**A.** The AUC(0-t) was 1120 µg·h/mL.

**Q.** What about the Tmax [7, 20] of the same molecule?
**A.** Its Tmax is 2 to 9 h.

**Q.** And the “inhibition of phospho-IκBα” value [8]?
**A.** Its value is “did not inhibit phospho-IκBα”.
